In US9730906B2, “α-derivatives of cis-monounsaturated fatty acids for use as medicines” (UNIVERSITAT DE LES ILLES BALEARS, priority 2008, dated 2017):

What was measured:
[1] = system: MDA-MB-231; test: Effect of OHOD on cancer cells in culture (Table 2); type: cell-based, human; design: key to Anti-tumour effect: + [inhibition of growth]; ++ [total halt of growth]; +++ [total removal of tumour cells]; key to Mechanism of action: P [anti-proliferative]; D [differentiation]; A [apoptosis]; conditions: MDA-MB-231, Breast
Procedure: (§1) Also, a series of α-derivatives of cis-monounsaturated fatty acids were used to investigate their effectiveness in cancer treatment. Two types of experiment were performed. Firstly, the dependency of the anti-tumour effect on concentration was investigated. To perform these experiments, human lung cancer cells (A549) were cultivated in RPMI medium, supplemented with 10% foetal bovine […], 10 mM Hepes (pH 7.4), 2 mM glutamine, 2 g/l bicarbonate, 1 g/l glucose, 100 units/ml penicillin, 0.1 mg/ml streptomycin, 0.25 μg/ml Amphotericin B, at 37° C. and in the presence of 5% CO2. In a first experimental series, these cells were treated with various concentrations (0-400 μM) of OHOD and MOD11 and the number of cells was determined by flow cytometry (FIG. 3A). […] In a second series, the anti-tumour effectiveness on A549 lung cancer cells was investigated at a single concentration (150 μM) and a time of 48 hours (FIG. 3B). […] Obviously, among the previous molecules, some lacked both modifications on the α-carbon and the double bond in cis configuration (EO, HDO, ODO) and had no therapeutic effect.
(§2) In a second experimental series, designed to discover whether these molecules are effective in treatment of different types of tumours, the effect of OHOD at various concentrations on human cells of different types of cancer was studied. These experiments were performed as described before, except that the M220 and HT-29 cell lines were cultured in DMEM medium and the MDA-MB-231 line was incubated in Leibowitz L-15 medium supplemented with 15% foetal bovine […]. […] Where the nature of the tumour process requires, application can be topical (use on the skin of active products for the treatment of melanoma and other cutaneous abnormalities of cancerous nature), which can be considered as cosmetic treatments when attempts are made to correct aesthetic defects.

[2] = system: Jurkat; test: as above; type: cell-based, human; design: key to Anti-tumour effect: + [inhibition of growth]; ++ [total halt of growth]; +++ [total removal of tumour cells]; key to Mechanism of action: P [anti-proliferative]; D [differentiation]; A [apoptosis]; conditions: Lym-Leukaemia
Procedure: as §1, §2

[3] = system: L-1210; test: as above; type: cell-based, human; design: key to Anti-tumour effect: + [inhibition of growth]; ++ [total halt of growth]; +++ [total removal of tumour cells]; key to Mechanism of action: P [anti-proliferative]; D [differentiation]; A [apoptosis]; conditions: L-1210, Lym-Leukaemia
Procedure: as §1, §2

[4] = system: T98G; test: as above; type: cell-based, human; design: key to Anti-tumour effect: + [inhibition of growth]; ++ [total halt of growth]; +++ [total removal of tumour cells]; key to Mechanism of action: P [anti-proliferative]; D [differentiation]; A [apoptosis]; conditions: Glioma
Procedure: as §1, §2

[5] = system: A118; test: as above; type: cell-based, human; design: key to Anti-tumour effect: + [inhibition of growth]; ++ [total halt of growth]; +++ [total removal of tumour cells]; key to Mechanism of action: P [anti-proliferative]; D [differentiation]; A [apoptosis]; conditions: A118, Glioma
Procedure: as §1, §2

[6] = system: LNcaP; test: as above; type: cell-based, human; design: key to Anti-tumour effect: + [inhibition of growth]; ++ [total halt of growth]; +++ [total removal of tumour cells]; key to Mechanism of action: P [anti-proliferative]; D [differentiation]; A [apoptosis]; conditions: Prostate
Procedure: as §1, §2

[7] = system: aortas of SHR rats; test: Contractile response induced by noradrenalin in isolated aorta, organ bath; design: species or system rat; conditions: aortas pre-treated 60 minutes in organ bath at 37° C., vs vehicle, p<0.05
Procedure: FIG. 11. Effect of OHOD on the contractile response induced by noradrenalin (NA) in aortas of SHR rats. The logarithm of NA is shown on the horizontal axis and the concentration (g) is shown on the vertical axis. The aortas were treated with OHOD (filled circles) or vehicle (empty circles) for 60 minutes in an organ bath at 37° C. in Ringer medium with oxygen.
Atherosclerosis or arteriosclerosis is a pathology characterised by the loss of contractility of blood vessels. This loss is associated with diverse factors, among which is the formation of deposits on the vascular lumen giving rise to the proliferation of vascular cells, reduction of blood flow and vasoconstrictor and vasodilator responses to neurotransmitters (such as noradrenalin) and to hormones. In studies in isolated rat aorta in organ bath, it was shown that the contraction power of the aortic muscle in response to noradrenalin increased very markedly after pre-treatments with OHOD acid. In addition, all the compounds with the structure of Formula I had similar effects on vascular muscle.

**Q.** Which Anti-tumour effect [1] does the source give for `CCCCCCCC/C=C\CCCCCCC(O)C(=O)O` (stereo not drawn) [OHOD, α-Hydroxy-cis-Δ9-octadecenoic] here?
**A.** The Anti-tumour effect was “++”.

**Q.** What about the Mechanism of action [1] of the same molecule?
**A.** The Mechanism of action was “A”.

**Q.** What about the Anti-tumour effect [2] of the same molecule?
**A.** The Anti-tumour effect was “+++”.

**Q.** And the Mechanism of action [2]?
**A.** Its Mechanism of action is “A”.

**Q.** And the Anti-tumour effect [3]?
**A.** The Anti-tumour effect was “+++”.

**Q.** What about the Mechanism of action [3] of the same molecule?
**A.** Its Mechanism of action is “A”.

**Q.** What about the Anti-tumour effect [4] of the same molecule?
**A.** Its Anti-tumour effect is “+++”.

**Q.** What about the Mechanism of action [4] of the same molecule?
**A.** The Mechanism of action was “D”.

**Q.** What about the Anti-tumour effect [5] of the same molecule?
**A.** The Anti-tumour effect was “+++”.

**Q.** And the Mechanism of action [5]?
**A.** The Mechanism of action was “D”.

**Q.** What about the Anti-tumour effect [6] of the same molecule?
**A.** Its Anti-tumour effect is “+++”.

**Q.** And the Mechanism of action [6]?
**A.** Its Mechanism of action is “A”.

**Q.** And the “contractile response induced by noradrenalin (NA)” value [7]?
**A.** The value was “much higher”.
